Experiment [1] concerns the target T1, Neutrophil elastase (Homo sapiens) (UniProt P08246).
T1 sequence (whole entry): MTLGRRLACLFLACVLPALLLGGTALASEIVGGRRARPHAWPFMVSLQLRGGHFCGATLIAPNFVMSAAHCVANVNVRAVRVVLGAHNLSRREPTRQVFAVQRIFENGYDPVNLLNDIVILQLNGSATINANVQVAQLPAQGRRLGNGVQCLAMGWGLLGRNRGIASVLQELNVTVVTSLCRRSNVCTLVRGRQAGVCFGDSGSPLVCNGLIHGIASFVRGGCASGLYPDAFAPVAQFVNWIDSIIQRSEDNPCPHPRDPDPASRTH
Nature of the experiment: Percentage inhibition of HLE induced hemorrhage in the hamster lung at 6 hours. It counts as functional, tissue-based. To be noted: concentration not given here.

Experiment [2] deals with T1, Neutrophil elastase (Homo sapiens). Nature of the experiment: Percentage inhibition of HLE induced hemorrhage in the hamster lung at 24 hours. It counts as functional, tissue-based. The settings on record: concentration not given here.
For another experiment, the target named is T2, Neutrophil elastase (Homo sapiens, UniProt P08246).
T2 sequence (P08246 whole entry): T1 sequence (whole entry)
Briefly: Inhibitory concentration against Human Leukocyte Elastase from human sputum.

The species named for experiment [3] is Rattus norvegicus. Nature of the experiment: Inhibitory concentration against ferric ascorbate-induced lipid peroxidation from rat liver microsomal preparation. In kind it is functional.
Experiment [4] has as its target T1, Neutrophil elastase (Homo sapiens). Nature of the experiment: Percentage inhibition of HLE induced hemorrhage in the hamster lung at 18 hours. To be noted: concentration not given here. It counts as functional, tissue-based.
Experiment [5] has the same target. Briefly: Percentage inhibition of HLE induced hemorrhage in the hamster lung at 3 hours. In kind it is functional. More on the design: concentration or dose not given beside the values. To be noted: concentration not given here.
Experiment [6] is filed under the species Rattus norvegicus.
Experiment [7] deals with T1, Neutrophil elastase (Homo sapiens). Briefly: Percentage inhibition of HLE induced hemorrhage in the hamster lung at 48 hours. The settings on record: concentration not given here. It counts as functional, tissue-based.
The target of the next experiment is T3, Prolyl endopeptidase (Homo sapiens, UniProt P48147).
T3 sequence (P48147 whole entry): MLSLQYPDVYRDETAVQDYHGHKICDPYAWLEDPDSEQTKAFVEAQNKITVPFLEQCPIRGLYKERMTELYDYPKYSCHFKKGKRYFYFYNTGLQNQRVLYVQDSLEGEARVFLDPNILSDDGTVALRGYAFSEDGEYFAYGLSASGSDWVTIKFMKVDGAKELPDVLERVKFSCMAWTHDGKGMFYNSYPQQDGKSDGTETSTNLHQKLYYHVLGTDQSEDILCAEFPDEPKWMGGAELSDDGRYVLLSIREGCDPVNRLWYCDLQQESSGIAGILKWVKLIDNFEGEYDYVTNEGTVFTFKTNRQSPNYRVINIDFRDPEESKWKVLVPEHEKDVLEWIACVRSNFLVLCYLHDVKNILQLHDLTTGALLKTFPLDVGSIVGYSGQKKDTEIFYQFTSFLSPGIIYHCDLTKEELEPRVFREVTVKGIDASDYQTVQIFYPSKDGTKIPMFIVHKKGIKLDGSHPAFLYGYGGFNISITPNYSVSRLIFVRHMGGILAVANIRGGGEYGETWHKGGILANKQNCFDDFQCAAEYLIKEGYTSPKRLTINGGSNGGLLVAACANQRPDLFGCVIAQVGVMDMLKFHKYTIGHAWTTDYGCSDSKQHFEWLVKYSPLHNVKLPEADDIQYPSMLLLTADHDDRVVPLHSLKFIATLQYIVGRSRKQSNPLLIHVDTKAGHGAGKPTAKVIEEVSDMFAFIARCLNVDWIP
Nature of the experiment: The concentration required to achieve 50% inhibition against prolyl endopeptidase.

Experiment [8] deals with 72 kDa type IV collagenase (Homo sapiens, UniProt P08253). Briefly: The concentration required to achieve 50% inhibition against Matrix metalloprotease-2.
In experiment [9] the target is Matrix metalloproteinase-9 (Homo sapiens, UniProt P14780). Nature of the experiment: The concentration required to achieve 50% inhibition against Matrix metalloprotease-9.
The target in a further experiment is Stromelysin-1 (Homo sapiens, UniProt P08254). Nature of the experiment: The concentration required to achieve 50% inhibition against Matrix metalloprotease-3.
In another experiment the target is T4, Interstitial collagenase (Homo sapiens, UniProt P03956).
T4 sequence (P03956 whole entry): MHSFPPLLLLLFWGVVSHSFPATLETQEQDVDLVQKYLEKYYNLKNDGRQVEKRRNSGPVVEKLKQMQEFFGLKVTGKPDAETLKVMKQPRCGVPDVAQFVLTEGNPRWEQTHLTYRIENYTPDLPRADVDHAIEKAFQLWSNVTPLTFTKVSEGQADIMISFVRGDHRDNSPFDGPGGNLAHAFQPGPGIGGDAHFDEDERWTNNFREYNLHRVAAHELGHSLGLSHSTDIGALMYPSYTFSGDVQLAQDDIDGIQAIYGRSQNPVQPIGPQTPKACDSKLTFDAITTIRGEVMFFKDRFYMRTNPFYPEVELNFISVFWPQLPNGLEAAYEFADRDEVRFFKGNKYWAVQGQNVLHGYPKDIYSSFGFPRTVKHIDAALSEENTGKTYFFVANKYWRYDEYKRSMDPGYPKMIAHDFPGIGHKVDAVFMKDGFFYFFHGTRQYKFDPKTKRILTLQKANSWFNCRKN
Briefly: The concentration required to achieve 50% inhibition against Matrix metalloprotease-1.

72 kDa type IV collagenase, sequence (P08253 whole entry): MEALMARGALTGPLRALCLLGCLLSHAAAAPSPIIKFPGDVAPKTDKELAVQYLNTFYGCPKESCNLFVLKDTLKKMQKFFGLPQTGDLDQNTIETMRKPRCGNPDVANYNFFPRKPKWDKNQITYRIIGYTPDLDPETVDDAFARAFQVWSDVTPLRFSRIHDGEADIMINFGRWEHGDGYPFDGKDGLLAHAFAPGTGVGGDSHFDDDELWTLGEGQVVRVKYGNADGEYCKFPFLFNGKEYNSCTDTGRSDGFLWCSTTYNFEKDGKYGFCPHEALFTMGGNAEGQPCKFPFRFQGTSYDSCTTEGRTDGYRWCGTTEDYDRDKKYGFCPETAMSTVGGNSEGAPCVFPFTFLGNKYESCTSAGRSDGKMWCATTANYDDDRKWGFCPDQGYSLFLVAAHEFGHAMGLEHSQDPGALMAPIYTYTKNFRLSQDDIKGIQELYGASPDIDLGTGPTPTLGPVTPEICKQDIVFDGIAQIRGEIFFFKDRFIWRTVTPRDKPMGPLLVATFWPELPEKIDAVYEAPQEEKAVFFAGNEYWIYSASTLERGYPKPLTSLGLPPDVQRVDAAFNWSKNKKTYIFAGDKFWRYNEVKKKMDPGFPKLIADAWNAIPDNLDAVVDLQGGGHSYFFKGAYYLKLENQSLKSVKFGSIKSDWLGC
Matrix metalloproteinase-9, sequence (P14780 whole entry): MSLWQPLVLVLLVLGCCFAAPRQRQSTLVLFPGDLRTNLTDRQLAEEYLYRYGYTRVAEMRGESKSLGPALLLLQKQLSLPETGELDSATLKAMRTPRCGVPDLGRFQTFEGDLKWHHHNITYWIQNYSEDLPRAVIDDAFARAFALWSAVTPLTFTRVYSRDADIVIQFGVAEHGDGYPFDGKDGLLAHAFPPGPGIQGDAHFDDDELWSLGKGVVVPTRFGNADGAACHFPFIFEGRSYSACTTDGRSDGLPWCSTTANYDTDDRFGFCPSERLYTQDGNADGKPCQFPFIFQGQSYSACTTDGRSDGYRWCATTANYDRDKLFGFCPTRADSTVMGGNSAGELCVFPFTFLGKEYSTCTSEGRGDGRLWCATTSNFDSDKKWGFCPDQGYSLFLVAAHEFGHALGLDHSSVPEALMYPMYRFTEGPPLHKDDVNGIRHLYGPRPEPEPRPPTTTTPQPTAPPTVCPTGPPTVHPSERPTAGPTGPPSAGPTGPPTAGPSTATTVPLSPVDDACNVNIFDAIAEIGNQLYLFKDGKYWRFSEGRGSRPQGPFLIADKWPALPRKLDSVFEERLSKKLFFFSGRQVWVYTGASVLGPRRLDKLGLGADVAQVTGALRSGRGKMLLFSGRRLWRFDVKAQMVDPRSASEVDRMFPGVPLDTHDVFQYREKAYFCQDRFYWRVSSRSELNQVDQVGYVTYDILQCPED
Stromelysin-1, sequence (P08254 whole entry): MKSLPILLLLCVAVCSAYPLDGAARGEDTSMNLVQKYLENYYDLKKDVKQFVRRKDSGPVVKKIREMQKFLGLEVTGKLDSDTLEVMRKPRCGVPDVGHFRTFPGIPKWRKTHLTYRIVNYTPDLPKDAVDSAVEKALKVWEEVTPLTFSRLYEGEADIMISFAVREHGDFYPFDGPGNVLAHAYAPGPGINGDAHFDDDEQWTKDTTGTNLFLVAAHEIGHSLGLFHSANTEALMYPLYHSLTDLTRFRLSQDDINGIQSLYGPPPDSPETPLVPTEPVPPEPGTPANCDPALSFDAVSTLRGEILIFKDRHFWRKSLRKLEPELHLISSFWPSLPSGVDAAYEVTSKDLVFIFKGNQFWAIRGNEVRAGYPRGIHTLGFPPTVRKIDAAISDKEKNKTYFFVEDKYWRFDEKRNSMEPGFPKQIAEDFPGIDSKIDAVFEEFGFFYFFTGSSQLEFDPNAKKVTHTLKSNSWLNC

With `CC(C)C(NC(=O)c1ccc(S(=O)(=O)NC(=O)Cc2cc(C(C)(C)C)c(O)c(C(C)(C)C)c2)cc1)C(=O)N1[C@@H](C(=O)NC(C(=O)C(F)(F)F)C(C)C)C[C@H]2CCCC[C@H]21` (stereo not given in full), the inhibition in [1] turned out to be 65%; in [2], 3%; in experiment [4], 26%; in experiment [5], 66%. Also, the IC50 against Neutrophil elastase stood at 38 nM; in the experiment listed under Rattus norvegicus [3], 5000 nM.

Turning to `CC(C)C(NC(=O)c1ccc(S(=O)(=O)NC(=O)c2cc(C(C)(C)C)c(OC(=O)c3cc(C(C)(C)C)c(O)c(C(C)(C)C)c3)c(C(C)(C)C)c2)cc1)C(=O)N1[C@@H](C(=O)NC(C(=O)C(F)(F)F)C(C)C)C[C@H]2CCCC[C@H]21` (stereo not given in full), the half-inhibitory concentration (IC50) is 46 nM against Neutrophil elastase and “Not Active” in the experiment filed under Rattus norvegicus [6]. In experiment [5], this molecule yielded an inhibition of 0%.

Turning to `CC(C)C(NC(=O)c1ccc(C(=O)NS(=O)(=O)c2ccc(Cl)cc2)cc1)C(=O)N1C2CCC(CC2)[C@@H]1C(=O)NC(C(=O)C(F)(F)F)C(C)C` (stereo not given in full), the IC50 was 15 nM against Neutrophil elastase and “Not Active” in the experiment filed under Rattus norvegicus [6].

As for `CCOCOc1c(C(C)(C)C)cc(/C=C/C(=O)NS(=O)(=O)c2ccc(C(=O)NC(C(=O)N3[C@@H](C(=O)NC(C(=O)C(F)(F)F)C(C)C)C[C@H]4CCCC[C@H]43)C(C)C)cc2)cc1C(C)(C)C` (stereo not given in full), the concentration for half-maximal inhibition (IC50) at Neutrophil elastase was 36 nM; in the experiment listed under Rattus norvegicus [6], “Not Active”. In [5], this molecule had an inhibition of 19%.

On to `CC(C)C(NC(=O)[C@@H]1CC2CCCCC2N1C(=O)[C@@H](CCCCNC(=O)Cc1cc(C(C)(C)C)c(O)c(C(C)(C)C)c1)NC(=O)c1ccc(C(=O)NS(=O)(=O)c2ccc(Cl)cc2)cc1)C(=O)C(F)(F)F` (stereo not given in full), for which the inhibition amounted to 41% in [1]; 0% in [7]; 14% in experiment [2]; 45% in experiment [4]; 40% in experiment [5]. In addition, the results for the IC50 on Neutrophil elastase and in the experiment filed under Rattus norvegicus [3] were 70 nM and 2500 nM, respectively.

`CC(C)[C@H](NC(=O)OC(C)(C)C)C(=O)N1C2CCC(CC2)[C@@H]1C(=O)N[C@H](C(=O)C(F)(F)F)C(C)C` displayed an IC50 against Neutrophil elastase of 32 nM.

Regarding `CC(C)C(NC(=O)c1ccc(S(=O)(=O)NC(=O)c2ccc(Cl)c(S(=O)(=O)NC(=O)CSc3cc(C(C)(C)C)c(O)c(C(C)(C)C)c3)c2)cc1)C(=O)N1[C@@H](C(=O)NC(C(=O)C(F)(F)F)C(C)C)C[C@H]2CCCC[C@H]21` (stereo not given in full), the IC50 came out at 2000 nM against Prolyl endopeptidase; 19000 nM in experiment [8]; 24000 nM in experiment [9]; 38000 nM against Stromelysin-1; 58000 nM against Interstitial collagenase.

As for `CC(C)C(NC(=O)[C@@H]1CC2CCCCC2N1C(=O)[C@@H](CCCCNC(=O)CCCSc1cc(C(C)(C)C)c(O)c(C(C)(C)C)c1)NC(=O)c1ccc(C(=O)NS(=O)(=O)c2ccc(Cl)cc2)cc1)C(=O)C(F)(F)F` (stereo not given in full), the half-inhibitory concentration (IC50) against Neutrophil elastase turned out to be 84 nM; in the experiment filed under Rattus norvegicus [3], 2500 nM. Further, the inhibition in experiment [5] turned out to be 3%.

For orientation: inhibition means the relative decrease from the control value, in per cent. One may read the IC50 as the midpoint of a concentration-inhibition curve.

For the origin of these results see ChEMBL document CHEMBL1130065, “Dual inhibition of human leukocyte elastase and lipid peroxidation: in vitro and in vivo activities of azabicyclo[2.2.2]octane and perhydroindole derivatives” (J Med Chem, 1997).
